Reference: publication PMC5515969, “Effects of 31 FDA approved small-molecule kinase inhibitors on isolated rat liver mitochondria” (Archives of Toxicology, 2016)
Where two headings read alike, the source gives them in different places.

Experiments:
[1] = system: RCC I; assay: RCC I activity in submitochondrial particles; format: biochemical, rat; set-up: key to RCC I at 10XCmax / RCC I at 100XCmax / RCC I at 50XCmax / RCC I at 30XCmax / RCC I at 20XCmax: activity relative to DMSO-treated controls (control set as 1 = 100%); settings: for RCC activity I: 15 min
Method in brief: (§1)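 Rat submitochondrial particles (1 mg/ml) were treated with test compounds for 15 min. RCC IV, like RCC III, was monitored at 550 nm every 10 s for 2 min, and RCC I/V at 340 nm each minute for 6 min. DMSO samples defined unit activity.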

[2] = system: isolated rat liver mitochondria; assay: Mitochondrial oxygen consumption (glutamate/malate or succinate driven, state 4 and state 3); format: biochemical; settings: for Glutamate/malate driven respiration State 3 / Glutamate/malate driven respiration State 4 / Succinate-driven respiration State 3 / Succinate-driven respiration State 4: oxygen consumption, DMSO-treated = 1; for State 3 respiration driven by succinate at 10XCmax: key: 0 indicates that the drug had no effects (negative); for State 3 respiration driven by succinate at 1XCmax: key: 0 indicates that the drug had no effects (negative)
Method in brief: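 Oxygen uptake on glutamate/malate or on succinate defined state 4; ADP added 3 min later gave state 3. Mitochondria isolated from rat liver by differential centrifugation, adjusted to 1 mg/ml and pretreated 5 min with inhibitor (0.1% DMSO final). Values relative to DMSO control, set to 1.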

[3] = system: isolated rat liver mitochondria; assay: Mitochondrial swelling (absorbance at 535 nm); format: biochemical; for Swelling 5XCmax: key: 0 indicates that the drug had no effects (negative)
[4] = biological target: T1, RCC II (Rattus norvegicus, UniProt P21913+Q641Z9+Q6PCT8+Q920L2); assay: RCC II activity in submitochondrial particles; format: biochemical; set-up: key: activity relative to DMSO-treated controls (control set as 1 = 100%); settings: DMSO treated samples set as 1
T1 construct: Submitochondrial particles were prepared by subjecting the intact mitochondria to three successive freeze–thaw cycles; from tissue; host or cells: rat liver mitochondria, used as submitochondrial particles
T1 sequence (Q920L2 35-656): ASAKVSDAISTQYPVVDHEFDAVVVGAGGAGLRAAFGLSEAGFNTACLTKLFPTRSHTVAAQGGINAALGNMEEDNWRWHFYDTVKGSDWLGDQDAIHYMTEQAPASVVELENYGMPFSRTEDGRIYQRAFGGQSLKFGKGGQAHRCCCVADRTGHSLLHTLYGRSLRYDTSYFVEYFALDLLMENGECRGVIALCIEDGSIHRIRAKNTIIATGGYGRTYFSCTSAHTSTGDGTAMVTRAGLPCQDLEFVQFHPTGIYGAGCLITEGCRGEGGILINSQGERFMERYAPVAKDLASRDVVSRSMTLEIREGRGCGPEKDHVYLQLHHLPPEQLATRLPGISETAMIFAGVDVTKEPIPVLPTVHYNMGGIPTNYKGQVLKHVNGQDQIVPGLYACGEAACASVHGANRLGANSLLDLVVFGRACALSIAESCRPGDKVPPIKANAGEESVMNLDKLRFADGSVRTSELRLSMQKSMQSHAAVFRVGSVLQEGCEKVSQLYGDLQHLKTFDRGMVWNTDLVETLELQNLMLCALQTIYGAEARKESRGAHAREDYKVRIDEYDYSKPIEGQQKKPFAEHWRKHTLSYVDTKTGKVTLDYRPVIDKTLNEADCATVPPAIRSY
T1 sequence (P21913 31-282): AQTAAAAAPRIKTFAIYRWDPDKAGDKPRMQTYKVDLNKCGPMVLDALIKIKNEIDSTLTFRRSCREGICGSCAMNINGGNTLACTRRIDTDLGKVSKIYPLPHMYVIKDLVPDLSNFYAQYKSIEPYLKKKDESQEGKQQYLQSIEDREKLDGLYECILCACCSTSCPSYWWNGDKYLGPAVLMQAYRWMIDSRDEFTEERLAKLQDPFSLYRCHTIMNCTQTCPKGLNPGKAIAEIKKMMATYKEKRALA
T1 sequence (Q641Z9 1-169): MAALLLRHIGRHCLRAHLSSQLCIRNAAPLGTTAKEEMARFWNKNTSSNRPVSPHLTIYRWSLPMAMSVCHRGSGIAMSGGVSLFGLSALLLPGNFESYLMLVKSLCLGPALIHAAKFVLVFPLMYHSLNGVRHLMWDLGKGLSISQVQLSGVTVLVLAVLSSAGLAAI
T1 sequence (Q6PCT8 57-159): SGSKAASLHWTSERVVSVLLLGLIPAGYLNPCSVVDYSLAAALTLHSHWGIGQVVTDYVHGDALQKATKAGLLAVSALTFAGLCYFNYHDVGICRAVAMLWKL
Method in brief: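 Activity relative to DMSO (set as 1) after 15-min exposure of submitochondrial particles (1 mg/ml) to compound. RCC I is defined as rotenone-sensitive activity and RCC II is followed at 600 nm over 6 min.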

[5] = system: isolated rat liver mitochondria; assay: Mitochondrial ROS production (CM-H2DCFDA)
[6] = cited from earlier work
[7] = cited from earlier work; remark: listed apart in the source
[8] = system: RCC V; assay: RCC V activity in submitochondrial particles; format: biochemical, rat; settings: for RCC activity V: 15 min, DMSO-treated = 100; for RCC V at 5XCmax: key: 0 indicates that the drug had no effects (negative)
Method in brief: as §1

[9] = system: RCC III; assay: RCC III activity in submitochondrial particles; format: biochemical, rat; set-up: key to RCC III at 100XCmax: activity relative to DMSO-treated controls (control set as 1 = 100%); settings: for RCC activity III: 15 min, DMSO-treated = 100
Method in brief: as §1

[10] = system: isolated rat liver mitochondria
[11] = 10XCmax, DMSO treated samples set as 1
[12] = 1XCmax, DMSO treated samples set as 1
[13] = 2.5XCmax, DMSO treated samples set as 1
[14] = 5XCmax, DMSO treated samples set as 1
[15] = 20XCmax, DMSO treated samples set as 1
[16] = 30XCmax, DMSO treated samples set as 1
[17] = 50XCmax, DMSO treated samples set as 1
[18] = 100XCmax, DMSO treated samples set as 1

Cc1cc(Nc2ncc(Cl)c(Nc3ccccc3S(=O)(=O)C(C)C)n2)c(OC(C)C)cc1C1CCNCC1 [Ceritinib]
RCC I at 10XCmax [1, 11]: 0
RCC activity I ([1]; 50-fold Cmax, DMSO-treated = 100): 94.04 ± 3.32 % of control
RCC activity I ([1]; 100-fold Cmax, DMSO-treated = 100): 63.74 ± 13.12 % of control
RCC I at 100XCmax ([1]; 100XCmax, DMSO-treated = 100): 63.74±13.12
State 3 respiration driven by glutamate/malate at 1XCmax [2, 12]: 0
State 3 respiration driven by succinate at 1XCmax [2, 12]: 0
State 4 respiration driven by glutamate/malate at 1XCmax [2, 12]: 0
State 4 respiration driven by succinate at 1XCmax [2, 12]: 0
State 3 respiration driven by glutamate/malate at 2.5XCmax [2, 13]: 0
State 3 respiration driven by succinate at 2.5XCmax [2, 13]: 0
State 4 respiration driven by glutamate/malate at 2.5XCmax [2, 13]: 0
State 4 respiration driven by succinate at 2.5XCmax [2, 13]: 0
State 3 respiration driven by glutamate/malate at 5XCmax [2, 14]: 0
State 3 respiration driven by succinate at 5XCmax [2, 14]: 0
State 4 respiration driven by glutamate/malate at 5XCmax [2, 14]: 0
State 4 respiration driven by succinate at 5XCmax [2, 14]: 0
State 3 respiration driven by glutamate/malate at 10XCmax [2, 11]: 0
State 3 respiration driven by succinate at 10XCmax [2, 11]: 0
State 4 respiration driven by glutamate/malate at 10XCmax [2, 11]: 0
State 4 respiration driven by succinate at 10XCmax [2, 11]: 0
State 3 respiration driven by glutamate/malate at 20XCmax [2, 15]: 0
State 3 respiration driven by succinate at 20XCmax [2, 15]: 0
State 4 respiration driven by glutamate/malate at 20XCmax [2, 15]: 0
State 4 respiration driven by succinate at 20XCmax [2, 15]: 0
Glutamate/malate driven respiration State 3 ([2]; 30-fold Cmax): 0.88 ± 0.05
Glutamate/malate driven respiration State 4 ([2]; 30-fold Cmax): 1.12 ± 0.13
Succinate-driven respiration State 3 ([2]; 30-fold Cmax): 0.41 ± 0.18
Succinate-driven respiration State 4 ([2]; 30-fold Cmax): 0.70 ± 0.12
State 3 respiration driven by glutamate/malate at 30XCmax [2, 16]: 0
State 3 respiration driven by succinate at 30XCmax [2, 16]: 0.41±0.18
State 4 respiration driven by glutamate/malate at 30XCmax [2, 16]: 0
State 4 respiration driven by succinate at 30XCmax [2, 16]: 0.70±0.12
Glutamate/malate driven respiration State 3 ([2]; 50-fold Cmax): 0.55 ± 0.03
Glutamate/malate driven respiration State 4 ([2]; 50-fold Cmax): 1.21 ± 0.12
Succinate-driven respiration State 3 ([2]; 50-fold Cmax): 0.45 ± 0.08
Succinate-driven respiration State 4 ([2]; 50-fold Cmax): 0.77 ± 0.07
State 3 respiration driven by glutamate/malate at 50XCmax [2, 17]: 0.55±0.03
State 3 respiration driven by succinate at 50XCmax [2, 17]: 0.45±0.08
State 4 respiration driven by glutamate/malate at 50XCmax [2, 17]: 1.21±0.12
State 4 respiration driven by succinate at 50XCmax [2, 17]: 0.77±0.07
inhibition of mitochondrial oxygen consumption ([2]; 100-fold Cmax): ~100%
Glutamate/malate driven respiration State 3 ([2]; 100-fold Cmax): 0.08 ± 0.02
Glutamate/malate driven respiration State 4 ([2]; 100-fold Cmax): 0.50 ± 0.06
Succinate-driven respiration State 3 ([2]; 100-fold Cmax): 0.03 ± 0.02
Succinate-driven respiration State 4 ([2]; 100-fold Cmax): 0.17 ± 0.10
State 3 respiration driven by glutamate/malate at 100XCmax [2, 18]: 0.08±0.02
State 3 respiration driven by succinate at 100XCmax [2, 18]: 0.03±0.02
State 4 respiration driven by glutamate/malate at 100XCmax [2, 18]: 0.50±0.06
State 4 respiration driven by succinate at 100XCmax [2, 18]: 0.17±0.10
lowest concentration significantly affecting mitochondrial oxygen consumption ([2]; tested at 1 to 100-fold Cmax): 30 fold Cmax
lowest concentration causing mitochondrial swelling [3]: 100 fold Cmax
Swelling 1XCmax ([3]; 1XCmax, difference in signal between KI and DMSO treated samples at the end of experiments): 0
Swelling 2.5XCmax ([3]; 2.5XCmax, difference in signal between KI and DMSO treated samples at the end of experiments): 0
Swelling 5XCmax ([3]; 5XCmax, difference in signal between KI and DMSO treated samples at the end of experiments): 0
Swelling 10XCmax ([3]; 10XCmax, difference in signal between KI and DMSO treated samples at the end of experiments): 0
Swelling 20XCmax ([3]; 20XCmax, difference in signal between KI and DMSO treated samples at the end of experiments): 0
Swelling 30XCmax ([3]; 30XCmax, difference in signal between KI and DMSO treated samples at the end of experiments): 0
Swelling 50XCmax ([3]; 50XCmax, difference in signal between KI and DMSO treated samples at the end of experiments): 0
Swelling 100XCmax ([3]; 100XCmax, difference in signal between KI and DMSO treated samples at the end of experiments): 0.54±0.06
effect on mitochondrial swelling ([3]; up to 100-fold Cmax or highest testable concentration, 25 µM calcium chloride): significant mitochondrial swelling
RCC II at 1.0XCmax ([4]; 1.0XCmax): 0
RCC II at 2.5XCmax ([4]; 2.5XCmax): 0
RCC II at 5XCmax ([4]; 5XCmax): 0
RCC II at 10XCmax ([4]; 10XCmax): 0
RCC II at 20XCmax ([4]; 20XCmax): 0
RCC II at 30XCmax ([4]; 30XCmax): 0
RCC II at 50XCmax ([4]; 50XCmax): 0
RCC II at 100XCmax ([4]; 100XCmax): 69.91±10.00
lowest concentration triggering ROS overproduction [5]: 50 fold Cmax
ROS measured by CM-H2DCFDA at 1XCmax [5, 12]: 0
ROS measured by CM-H2DCFDA at 2.5XCmax [5, 13]: 0
ROS measured by CM-H2DCFDA at 5XCmax [5, 14]: 0
ROS measured by CM-H2DCFDA at 10XCmax [5, 11]: 0
ROS measured by CM-H2DCFDA at 20XCmax [5, 15]: 0
ROS measured by CM-H2DCFDA at 30XCmax [5, 16]: 0
ROS measured by CM-H2DCFDA at 50XCmax [5, 17]: 2.51±0.21
ROS measured by CM-H2DCFDA at 100XCmax [5, 18]: 1.93±0.49
effect on ROS production ([5]; highest tested concentrations): significantly ROS production
Cmax ([6]; human therapeutic Cmax at FDA recommended dosages, ref product labeling and drug approval packages at the official FDA website): 1.81 µM
Cmax (ng or µg/ml) ([6]; human therapeutic maximal blood concentration, ref product labeling): 1.01 µg/mL
Cmax ([6]; read-out: Cmax at µM, human therapeutic maximal blood concentration, ref product labeling): 1.81 µM
DILI potential (based on labeling) ([7]; 1 DILI positive, 0 negative according to labeling, ref product labeling): 1
Labeling for DILI ([7]; BBW: black box warning, W&P: Warnings and Precautions, ref product labeling): W&P: ALT↑
labeling for DILI ([7]; W&P warnings and precautions, BBW black box warnings, ref FDA product labeling): W&P: ALT↑/monitoring
DILI potential (based on labeling) ([7]; ref FDA product labeling): 1
RCC V at 5XCmax [8, 14]: 0
RCC activity V ([8]; 50-fold Cmax): 71.23 ± 9.65 % of control
RCC V at 50XCmax [8, 17]: 71.23±9.65
RCC activity V ([8]; 100-fold Cmax): 34.25 ± 2.09 % of control
RCC V at 100XCmax [8, 18]: 34.25±2.09
RCC activity III ([9]; 50-fold Cmax): 103.80 ± 5.19 % of control
RCC activity III ([9]; 100-fold Cmax): 68.48 ± 6.59 % of control
RCC III at 100XCmax ([9]; 100XCmax): 68.48±6.59
Cytochrome c release 1XCmax ([10]; 1XCmax, positive control alamethicin treated samples): 0
Cytochrome c release 2.5XCmax ([10]; 2.5XCmax, positive control alamethicin treated samples): 0
Cytochrome c release 5XCmax ([10]; 5XCmax, positive control alamethicin treated samples): 0
Cytochrome c release 10XCmax ([10]; 10XCmax, positive control alamethicin treated samples): 0
Cytochrome c release 20XCmax ([10]; 20XCmax, positive control alamethicin treated samples): 0
Cytochrome c release 30XCmax ([10]; 30XCmax, positive control alamethicin treated samples): 0
Cytochrome c release 50XCmax ([10]; 50XCmax, positive control alamethicin treated samples): 11.93±0.58 percentage of the positive control group
total cytochrome c leaked after treatment ([10]; 100-fold Cmax, alamethicin = 100): 33%
Cytochrome c release 100XCmax ([10]; 100XCmax, positive control alamethicin treated samples): 32.92±4.32 percentage of the positive control group
lowest concentration causing cytochrome c release ([10]; rat, 30 min, pH 7.4): 50 fold Cmax
